Results from US20140357512A1, “HISTONE DEACETYLASE (HDAC) BIOMARKERS IN MULTIPLE MYELOMA” (priority 2013, published 2014).

System: human myeloma cell line MM.1S
Test: SILAC acetylated-lysine peptide profiling, HDAC inhibitor vs DMSO (light/heavy ratio)
Type: cell-based
Description: An embodiment of the invention comprises utilizing the SILAC method in order to quantitate changes in protein expression between two or more populations of cells. The SILAC method is a technique based on mass spectrometry that detects differences in protein abundance among samples using non-radioactive isotopic labeling. The SILAC method is known in the art, and described in detail in Ong et al., “Stable Isotope Labeling by Amino Acids in Cell Culture, SILAC, as a Simple and Accurate Approach to Expression Proteomics”, Molecular & Cellular Proteomics, vol. 1, pp. 376-386 (2002), which is incorporated herein by reference in its entirety.
Briefly, the SILAC method involves growing two populations of cells in cell culture. The first population of cells is grown in growth media containing normal amino acids (“normal media”). The second population of cells is grown in media lacking a standard essential amino acid (such as lysine), but is then supplemented with a non-radioactive, isotopically labeled form of that essential amino acid (such as lysine labeled with ^13C atoms, rather than normal ^12C atoms), which is called “heavy media”. When the two populations of cells are each growing in the medium, they incorporate the amino acids into all of their proteins. The growth of cells maintained in the heavy media is no different from that in normal media. All peptides containing the heavy amino acids are heavier than their normal counterparts. The cells from each of the two populations of cells are lysed. The lysates from each of the two cell populations are then combined. The combined cell lysates are then analyzed by mass spectrometry. Pairs of chemically identical peptides of different stable isotope composition can be differentiated in a mass spectrometer due to their difference in mass. The ratio of peak intensities in the mass spectrum for such peptide pairs reflects the abundance ratio for the two proteins.
This example describes SILAC studies that were performed to compare the effects of three different HDAC inhibitors (Compound A, Compound B, and tubastatin A) to a control on a human multiple myeloma cell line. The HDAC inhibitors were also compared amongst themselves to determine differences in their effects.
A human myeloma cell line MM.1S was grown using either ^12C (light) or ^13C (heavy) lysine containing culture medium. The “heavy” cells were treated with DMSO as the control, and the “light” cells were treated with a single HDAC inhibitor at 37° C. for 6 hours. The heavy and light cells were lysed, and the lysates were mixed in 1:1 ratio and digested with the protease trypsin. The acetylated lysine containing peptides (due to the action of the HDAC inhibitor) in the digested peptide pool were captured by a non-specific anti-acetylated lysine antibody cocktail (the antibodies identify both light and heavy acetylated peptides), and subjected to mass spectrometry analysis in order to identify thousands of individual peptides.
Thousands of peptides were identified in pairs (^12C and ^13C) due to their known mass differences. The amino acid sequence and quantitative ratio (Light/Heavy) of a given peptide in two differentially treated cell lysates were then determined and annotated with their possible protein (gene) sources.
As stated above, three HDAC inhibitors (Compound A, Compound B, and Tubastatin A) were used. Thus, the SILAC method was performed three times, with a different HDAC inhibitor compared to a control each time. Accordingly, there are three pairs of quantitative data in the table below, i.e., Compound A:DMSO, Compound B:DMSO, and Tubastatin A:DMSO. A cut-off of 1.30 fold of change (increase or decrease) was then used to determine “changed” or “+” in the table, and any peptides with a fold of change less than 1.3 fold were determined to be “unchanged” or “0” in the table. Those peptides that were not identified were marked as “NA” in the table. […]

O=C(CCCCCCNC(=O)c1cnc(N(c2ccccc2)c2ccccc2)nc1)NO [Compound A, 2-(diphenylamino)-N-(7-(hydroxyamino)-7-oxoheptyl)pyrimidine-5-carboxamide]
L/H ratio of acetylated peptide DWVLNEFK(ac)HGK (SEQ ID NO: 33) (DDX5 [388], log 2 scale, drug vs DMSO): 0.00
L/H ratio of acetylated peptide FEK(ac)[…] (SEQ ID NO: 32) (DDX17 [132], log 2 scale, drug vs DMSO): 0.00
L/H ratio of acetylated peptide ELNK(ac)ILEGR (SEQ ID NO: 2) (DLAT [466], log 2 scale, drug vs DMSO): 0.00
light to heavy ratio (L/H ratio) of acetylated peptide SQFLK(ac)YIEK (SEQ ID NO: 524) (DNA replication licensing factor MCM2 [534], gene MCM2, inhibitor:DMSO): −0.46 log 2
light to heavy ratio (L/H ratio) of acetylated peptide TFEK(ac)SMMNLQTK (SEQ ID NO: 354) (DNA topoisomerase 1 [642], TOP1, drug:DMSO): 0.00 log 2
L/H ratio of acetylated peptide VVK(ac)HPIFER (SEQ ID NO: 35) (DNAJB11 [247], log 2 scale, drug vs DMSO): 0.00
L/H ratio of acetylated peptide (DVTLQK(ac)QCVPFR (SEQ ID NO: 486), 60S ribosomal protein L17 [55], RPL17): 0.71 log 2
light to heavy ratio (L/H ratio) of acetylated peptide LNLDK(ac)MMEQK (SEQ ID NO: 603) (Dihydrolipoyl dehydrogenase mitochondrial [122], gene DLD, inhibitor:DMSO): 0.46 log 2
light to heavy ratio (L/H ratio) of acetylated peptide DTYIENEK(ac)LISGK (SEQ ID NO: 352) (Dolichyl-diphosphooligosaccharide--protein glycosyltransferase subunit 1 precursor [626], RPN1, drug:DMSO): 0.00 log 2
light to heavy ratio (L/H ratio) of acetylated peptide YNIEK(ac)DIAAHIK (SEQ ID NO: 553) (Dynein light chain 1 cytoplasmic [36], gene DYNLL1, inhibitor:DMSO): 0.40 log 2
light to heavy ratio (L/H ratio) of acetylated peptide YNIEK(ac)DIAAYIK (SEQ ID NO: 331) (Dynein light chain 2 cytoplasmic [36], DYNLL2, drug:DMSO): 0.00 log 2
L/H ratio of acetylated peptide (EHLLK(ac)YEYQPFAGK (SEQ ID NO: 482), Isoform 1 of WD repeat-containing protein 1 [95], WDR1): 0.47 log 2
L/H ratio of acetylated peptide TSK(ac)NK(ac)SSLSR (SEQ ID NO: 14) (EP300 [1558:1560], log 2 scale, drug vs DMSO): 1.00
light to heavy ratio (L/H ratio) of acetylated peptide YLAEK(ac)YEWDVAEAR (SEQ ID NO: 332) (Elongation factor 2 [638], EEF2, drug:DMSO): 0.00 log 2
light to heavy ratio (L/H ratio) of acetylated peptide TFK(ac)GVVDVVMK (SEQ ID NO: 550) (Elongation factor G 2 mitochondrial precursor [265], gene GFM2, inhibitor:DMSO): 0.39 log 2
light to heavy ratio (L/H ratio) of acetylated peptide KSDYIK(ac)LYVR (SEQ ID NO: 315) (Endoplasmin [410], HSP90B1, drug:DMSO): 1.00 log 2
light to heavy ratio (L/H ratio) of acetylated peptide EK(ac)[…] (SEQ ID NO: 314) (Endoplasmin[ 142], HSP90B1, drug:DMSO): 1.00 log 2
light to heavy ratio (L/H ratio) of acetylated peptide EVEEDEYK(ac)AFYK (SEQ ID NO: 261) (Endoplasmin[ 356], HSP90B1, drug:DMSO): 0.41 log 2
light to heavy ratio (L/H ratio) of acetylated peptide K(ac)EELTLEGIR (SEQ ID NO: 510) (Eukaryotic initiation factor 4A-I [238], gene EIF4A1, inhibitor:DMSO): −0.60 log 2
light to heavy ratio (L/H ratio) of acetylated peptide LMCK(ac)PIFSK (SEQ ID NO: 335) (Eukaryotic translation initiation factor 2 subunit 3 [312], EIF2S3, drug:DMSO): 0.00 log 2
light to heavy ratio (L/H ratio) of acetylated peptide SHLAK(ac)EGLYQYK (SEQ ID NO: 533) (Eukaryotic translation initiation factor 3 subunit A [68], gene EIF3A, inhibitor:DMSO): −0.41 log 2
L/H ratio of acetylated peptide (FGIAAK(ac)[…] (SEQ ID NO: 479), Isoform 2 of Voltage-dependent anion-selective channel protein 2 [224], VDAC2): −0.40 log 2
light to heavy ratio (L/H ratio) of acetylated peptide, log 2 scale (FPHSAHQK(ac)YVR (SEQ ID NO: 253), Ribosomal protein L14 variant [71], RPL14): −0.39
L/H ratio of acetylated peptide (FVATGHGK(ac)YEK (SEQ ID NO: 487), Lymphocyte-specific protein 1 [327], LOC100133284, LSP1): 0.75 log 2
light to heavy ratio (L/H ratio) of acetylated peptide AVDLIQK(ac)HK (SEQ ID NO: 546) (Flap endonuclease 1 [252], gene FEN1, inhibitor:DMSO): 0.39 log 2
light to heavy ratio (L/H ratio), log 2 scale, acetylated peptide GGVVGIK(ac)VDK (SEQ ID NO: 774) (Fructose-bisphosphate aldolase A [108], gene ALDOA, drug:DMSO): 1.00
L/H ratio of acetylated peptide TCEESSFCK(ac)R (SEQ ID NO: 36) (GANAB [48], log 2 scale, drug vs DMSO): 0.00
L/H ratio of acetylated peptide ASGLAAGK(ac)GVIVAK (SEQ ID NO: 37) (GART [156], log 2 scale, drug vs DMSO): 0.00
L/H ratio of acetylated peptide LVK(ac)VWNLANCK (SEQ ID NO: 39) (GNB2L1 [175], log 2 scale, drug vs DMSO): 0.00
L/H ratio of acetylated peptide IIVDELK(ac)QEVISTSSK (SEQ ID NO: 38) (GNB2L1 [271], log 2 scale, drug vs DMSO): 0.00
L/H ratio of acetylated peptide (GSK(ac)K(ac)AVTK (SEQ ID NO: 490), Histone H2B type 2-E [16:17], HIST2H2BE): 1.00 log 2
L/H ratio of acetylated peptide (ac)AHYNFK(ac)K (SEQ ID NO: 40) (GTPBP4 [7], log 2 scale, drug vs DMSO): 0.00
L/H ratio of acetylated peptide (GVHPK(ac)FPEGGK (SEQ ID NO: 483), NADH-cytochrome b5 reductase 1 [124], CYB5R1): 0.48 log 2
light to heavy ratio (L/H ratio) of acetylated peptide (ac)[…](ac)PGECLR (SEQ ID NO: 575) (Galectin-1 [13], gene LGALS1, inhibitor:DMSO): 0.42 log 2
light to heavy ratio (L/H ratio) of acetylated peptide ISGASEK(ac)[…] (SEQ ID NO: 543) (Glutamate dehydrogenase 1 mitochondrial [503], gene GLUD1, inhibitor:DMSO): 0.39 log 2
light to heavy ratio (L/H ratio) of acetylated peptide […](ac)YDNSLK (SEQ ID NO: 620) (Glyceraldehyde-3-phosphate dehydrogenase [139], gene GAPDH, inhibitor:DMSO): 0.48 log 2
